Tests used:
[1] = biological target: Sigma intracellular receptor 2 (Rattus norvegicus); test: Binding affinity of compound was tested for Sigma receptor type 2
[2] = Binding affinity of compound was tested for Sigma receptor type 1

| Ki [1] [nM] | Ki [2] [nM] | SMILES |
| --- | --- | --- |
| 147 | 4300 | COc1ccccc1C(=O)CCCCCN1CCN(c2noc3ccccc23)CC1 [6-(4-Benzo[d]isoxazol-3-yl-piperazin-1-yl)-1-(2-methoxy-phenyl)-hexan-1-one] |
| – | 61 | O=C(CCCCCN1CCN(c2noc3ccccc23)CC1)c1ccccc1O [6-(4-Benzo[d]isoxazol-3-yl-piperazin-1-yl)-1-(2-hydroxy-phenyl)-hexan-1-one] |
